According to paper PMC5520492, “Inhibition of DNA2 nuclease as a therapeutic strategy targeting replication stress in cancer cells” (Oncogenesis, 2017):
Entries after “also recorded” stand apart in the source; their conditions may differ.

Columns and labels:
U2OS cells [1] = assay: Cell cycle distribution (BrdU, flow cytometry); assay type: cell-based, human; details: highest tested concentration 0.6 μM, 24 h; slight decrease of G1, increase of G2
Protocol: Apoptosis was measured by flow cytometry using the Annexin V FITC assay kit based on the protocol from the manufacturer (Invitrogen). For BrdU (bromodeoxyuridine (5-bromo-2′-deoxyuridine)) analysis, after treatments, cells were labeled with BrdU (Sigma) for 30 min before fixation with 70% cold ethanol (−20 °C). The next day, cells were washed with cold phosphate-buffered saline and incubated with 2 M HCl for 5 min at room temperature. After adjusting the pH with 0.1 M sodium borate (pH 8.5), cells were incubated in 1% bovine serum albumin with 0.1% Triton X-100 for 30 min and mouse anti-BrdU antibody (1:400) for 1 h to detect BrdU labeling. After washing, cells were incubated with secondary antibody (fluorescein isothiocyanate 1:400) for 30 min. […] For fluorescence-activated cell sorting analysis, the percentage of cells with positive BrdU staining in each phase of the cell cycle was quantitated with the CellQuest software and ModFit software (Verity Software House Inc., Topsham, ME, USA).
Figure S7: Cell cycle distribution of U2OS cells upon treatment with NSC-105808. (a) U2OS cells were treated with DMSO or the indicated concentration of NSC-105808 for 24 hrs followed by a pulse of BrdU (10 µM) for 30 minutes and then analyzed by flow cytometry. […] (c) Quantitation of the G1 cell population. […]

U2OS cells [2] = assay: RPA phosphorylation after camptothecin (immunofluorescence, chromatin fractionation); assay type: cell-based, human; details: NSC-105808 2 h, 0.3 μM; CPT 2 h, 1 μM
Protocol: (§1) Figure 4 NSC-105808 inhibits HR repair and DSB end resection. (a) Analysis of HR efficiency with the DR-green fluorescent protein (GFP) assay. Representative images of flow cytometry analysis and bar graph showing percentage of GFP cells from at least three independent experiments. Each value represents the mean±s.d. (b, c) Analysis of RPA phosphorylation in U2OS cells treated with NSC-105808 (2 h, 0.3 μM) and/or camptothecin (CPT; 2 h, 1 μM). (b) Representative images of cells subjected to immunofluorescent staining of p-RPA and bar graph showing percentage of cells with positive p-RPA staining from three independent experiments. Each value represents the mean±s.d. (c) Western blot analysis of chromatin fraction with the indicated antibodies. (d) Analysis of colony formation by FANCD2 (+/+) and FANCD2 (−/−) cells treated with cisplatin and/or NSC-105808. Each value is relative to the untreated control group of each cell line. The graph represents the mean±s.e.m. from three independent experiments. *P<0.01.
For the detection of DNA damage-induced p-RPA34 (S4/S8), immunofluorescent staining, and the preparation of chromatin fractions and western blot analyses were performed as described previously.[33], [48]

[3] = test system: MCF10AT1, MCF10-DCIS, MCF10CA1a versus MCF10A cells; assay: MTT proliferation, MCF10A progression series; assay type: cell-based, human; details: 48-h treatment
Protocol: (§2) Figure 5 Oncogene induction enhances sensitivity of cancer cells to NSC-105808. (a-e) Graphs showing proliferation of indicated cell lines in response to a 48-h treatment with the indicated concentrations of NSC-105808. Proliferation relative to cells treated with vehicle alone was determined by the 3-(4,5-dimethylthiazol-2-yl)-2,5-diphenyltetrazolium bromide (MTT) assay. Each value represents the mean±s.e.m. from three independent experiments. (a) Proliferation of control pancreatic epithelial cells DT-PD59 and transformed pancreatic cancer cells AsPC-1 and PANC-1. (b) Proliferation of normal breast epithelial cells MCF10A and breast cancer cells Hs578T and BT549. (c) Proliferation of MCF10A cells with or without H-Ras expression. H-Ras was induced with doxycycline (2 μg/ml). […]
(§3) Cell proliferation was measured by 3-(4,5-dimethylthiazol-2-yl)-2,5-diphenyltetrazolium bromide (Sigma) reduction (Supplementary Materials and Methods).
(§4) To determine the cell proliferation rate, 1000 cells/well were seeded in a 96-well plate in a total volume of 100 µl in triplicate in each experiment. […] Plates were read at 490 nm and 650 nm (background) in a
(§5) microplate reader (Molecular Devices). After the subtraction of background, cell viability was calculated as fold change relative to control cells.

DNA2 protein level = assay: Western blot of cellular DNA2 protein level; assay type: cell-based, human; details: U2OS, PANC-1, Hs578T; up to 12 hrs
Protocol: Figure S8. Analysis of DNA2 protein levels in cells treated with NSC-105808. U2OS (a), PANC-1 (b) and Hs578T (c) cells were treated with the indicated concentrations of NSC-105808 for 4 hours (right) or with a single concentration of NSC-105808 (0.3 µM for U2OS and Hs578T cells; 0.6 µM for PANC-1 cells) for 0, 4, 8, or 12 hrs (left). The results were quantified and are shown below each panel, with the error bars representing the mean ± SD of three independent experiments.

[4] = test system: MCF10A cells with inducible H-Ras expression; assay: MTT proliferation, MCF10A with inducible H-Ras; assay type: cell-based, human; details: 48-h treatment, doxycycline induction
Protocol: as §2, §3, §4, §5

[5] = test system: Hs578T and BT549 versus MCF10A cells; assay: MTT proliferation, breast cell lines; assay type: cell-based, human; details: 48-h treatment
Protocol: as §2, §3, §4, §5

FANCD2−/− cells = assay: Colony formation with cisplatin in FANCD2-deficient cells; assay type: cell-based; details: cisplatin 0.3125 µM, NSC-105808 […]
Protocol: as §1
DNA2 knockdown cells were seeded at low density; cells were then left for 2 weeks to allow colonies to form. Cells were stained with 2% methylene blue/50% ethanol, and colonies containing 50 or more cells were counted. […] Colonies were fixed, stained, and scored ten days after treatment.

[6] = test system: DT-PD77 cells with E6/E7 oncoprotein versus DT-PD59; assay: MTT proliferation, DT-PD59 versus E6/E7 DT-PD77; assay type: cell-based, human; details: 48-h treatment
Protocol: as §2, §3, §4, §5

NC1=C(Br)C(=O)c2ncccc2C1=O [NSC-105808, 6-amino-7-bromoquinoline-5,8-dione]
Impact on cell cycle distribution (U2OS cells [1]): only a mild impact | Accumulation of camptothecin-induced p-RPA (U2OS cells [2]): significantly attenuated | γ-H2AX level in chromatin fraction (U2OS cells [2]): concomitant enhancement | Sensitivity of cell lines with oncogene activation compared with MCF10A control [3]: more sensitive | Impact on cellular level of DNA2 protein (DNA2 protein level): No statistically significant difference; also recorded: no impact | Sensitivity upon activation of H-Ras [4]: increased sensitivity | Sensitivity of transformed breast cancer cells compared with MCF10A [5]: more sensitive | Cisplatin sensitivity of FANCD2−/− cells (colony formation) (FANCD2−/− cells): lessened the cisplatin sensitivity | Sensitivity in cells with E6/E7 oncoprotein-induced replication stress [6]: higher
